Measured values reported in patent US10988477B2 (Merck Patent GmbH, priority 2018, dated 2021).

Tests used:
[1] = molecular target: intracellular GCN2 (phosphorylation of the GCN2 substrate eIF2α) (Homo sapiens, UniProt Q9P2K8); assay: GCN2 cellular inhibition assay (AlphaScreen SureFire P-eIF2α Ser51, borrelidin-treated U2OS cells); type: cell-based; conditions: biomarker assay, phosphorylated eIF2α Ser51 in borrelidin-treated U2OS cells
Summary of the method: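 Borrelidin at 10 μM is added to U2OS cells immediately after compound (4-fold dilution series, 40 μM top final) for 1 h at 37 °C. Phosphorylated eIF2α Ser51 in lysates is quantified by AlphaScreen and expressed as percent inhibition against borrelidin-stimulated controls.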

[2] = molecular target: GCN2 kinase (Homo sapiens, UniProt Q9P2K8); assay: GCN2 enzyme inhibition assay (Transcreener ADP2 fluorescence polarization); type: biochemical; conditions: 280 μM ATP
Summary of the method: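 Run at 25 °C in 25 mM Tris-HCl pH 7.5, 50 mM NaCl, 10 mM MgCl2, 1 mM DTT with 4 nM GCN2, 280 μM ATP and 200 μM (RS)7 peptide; compound (0–8 μM final) preincubated 10 min, reaction 1 h. ADP read by antibody/tracer FP; IC50 and Ki(app) from tight-binding fit.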

[3] = Enzyme activity for compounds of Formula IV, Ki(app), 25° C.
[4] = compounds of Formula II, 4 nM GCN2 kinase

GCN2 kinase, sequence (Q9P2K8 whole entry): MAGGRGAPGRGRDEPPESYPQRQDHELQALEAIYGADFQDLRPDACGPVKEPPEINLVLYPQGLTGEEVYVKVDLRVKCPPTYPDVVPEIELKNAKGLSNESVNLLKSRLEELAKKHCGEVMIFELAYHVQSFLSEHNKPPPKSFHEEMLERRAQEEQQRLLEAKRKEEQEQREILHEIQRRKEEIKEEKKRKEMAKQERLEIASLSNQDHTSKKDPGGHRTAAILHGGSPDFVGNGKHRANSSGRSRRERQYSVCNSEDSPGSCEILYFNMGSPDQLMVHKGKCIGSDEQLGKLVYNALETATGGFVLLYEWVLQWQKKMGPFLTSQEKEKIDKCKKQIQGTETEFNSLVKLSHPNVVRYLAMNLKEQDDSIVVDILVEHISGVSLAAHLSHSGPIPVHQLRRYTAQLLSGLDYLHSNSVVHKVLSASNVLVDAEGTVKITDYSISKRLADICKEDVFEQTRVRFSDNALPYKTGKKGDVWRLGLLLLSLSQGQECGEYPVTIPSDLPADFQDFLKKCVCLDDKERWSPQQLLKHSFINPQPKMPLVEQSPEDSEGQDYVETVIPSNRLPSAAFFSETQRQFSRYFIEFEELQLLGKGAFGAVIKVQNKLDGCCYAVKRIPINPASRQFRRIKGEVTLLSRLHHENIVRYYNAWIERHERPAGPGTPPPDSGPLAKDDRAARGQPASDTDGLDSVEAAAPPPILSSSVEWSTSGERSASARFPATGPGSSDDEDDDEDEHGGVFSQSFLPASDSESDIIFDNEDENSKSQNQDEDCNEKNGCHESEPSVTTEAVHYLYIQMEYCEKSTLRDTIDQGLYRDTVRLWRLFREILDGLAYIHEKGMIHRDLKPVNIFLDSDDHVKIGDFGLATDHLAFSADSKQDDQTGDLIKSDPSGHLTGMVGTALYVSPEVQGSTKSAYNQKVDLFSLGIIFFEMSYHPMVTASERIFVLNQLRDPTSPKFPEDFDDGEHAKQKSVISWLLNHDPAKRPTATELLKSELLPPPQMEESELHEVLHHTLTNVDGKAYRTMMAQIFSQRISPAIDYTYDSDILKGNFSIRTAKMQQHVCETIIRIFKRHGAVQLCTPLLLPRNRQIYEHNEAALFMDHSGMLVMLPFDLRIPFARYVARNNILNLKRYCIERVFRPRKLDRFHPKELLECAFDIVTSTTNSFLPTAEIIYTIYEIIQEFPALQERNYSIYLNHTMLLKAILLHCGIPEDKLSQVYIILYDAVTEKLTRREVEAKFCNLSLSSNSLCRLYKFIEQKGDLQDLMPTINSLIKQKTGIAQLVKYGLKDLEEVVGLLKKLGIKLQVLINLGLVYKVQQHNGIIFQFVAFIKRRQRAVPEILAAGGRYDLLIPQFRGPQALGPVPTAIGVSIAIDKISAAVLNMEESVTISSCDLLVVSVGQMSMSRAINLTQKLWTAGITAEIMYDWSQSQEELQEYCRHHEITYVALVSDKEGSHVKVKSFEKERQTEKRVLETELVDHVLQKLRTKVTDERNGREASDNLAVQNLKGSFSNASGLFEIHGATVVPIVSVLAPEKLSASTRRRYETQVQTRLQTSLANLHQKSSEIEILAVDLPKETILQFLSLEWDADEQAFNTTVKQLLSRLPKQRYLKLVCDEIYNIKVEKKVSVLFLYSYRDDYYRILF
intracellular GCN2 (phosphorylation of the GCN2 substrate eIF2α), sequence (Q9P2K8 whole entry): as above

SMILES	IC50 ([1]; compounds of Formula IV) [nM]	Ki [2, 3] [nM]	IC50 ([1]; compounds of Formula II) [nM]	Ki [2, 4] [nM]
CS(C)(=O)=NC1CCCN(c2ccnc(-c3cnc4cnc(C(F)F)cn34)n2)C1 (stereo not shown) [IV-141, ((1-(2-(6-(Difluoromethyl)imidazo[1,2-a]pyrazin-3-yl)pyrimidin-4-yl)piperidin-3-yl)imino)dimethyl-λ^6-sulfanone]	> 5000	100 to 1000	–	–
O=C1CN(c2ccnc(-c3cnc4cnc(C(F)(F)F)cn34)n2)CC(c2cn[nH]c2)N1 (stereo not shown) [IV-410, 6-(1H-Pyrazol-4-yl)-4-(2-(6-(trifluoromethyl)imidazo[1,2-a]pyrazin-3-yl)pyrimidin-4-yl)piperazin-2-one]	> 5000	10 to 100	–	–
CS(=O)(=O)N1CCC2(CC1)CN(c1cc(-c3cnc4ccc(C(F)F)nn34)ncn1)CCO2 [II-287, 4-(6-(6-(Difluoromethyl)imidazo[1,2-b]pyridazin-3-yl)pyrimidin-4-yl)-9-(methylsulfonyl)-1-oxa-4,9-diazaspiro[5.5]undecane]	–	–	> 5000	10 to 1000
CC1CC(CNS(C)(=O)=O)CN1c1cc(-c2cnc3ccc(C(F)F)nn23)ncn1 (stereo not shown) [II-8, N-((1-(6-(6-(Difluoromethyl)imidazo[1,2-b]pyridazin-3-yl)pyrimidin-4-yl)-5-methylpyrrolidin-3-yl)methyl)methanesulfonamide]	–	–	500 to 5000	10 to 1000
CC(NS(C)(=O)=O)C1CN(c2cc(-c3cnc4ccc(C(F)F)nn34)ncn2)CCN1C (stereo not shown) [II-473, N-(1-(4-(6-(6-(Difluoromethyl)imidazo[1,2-b]pyridazin-3-yl)pyrimidin-4-yl)-1-methylpiperazin-2-yl)ethyl)methanesulfonamide]	–	–	> 5000	10 to 1000
CC1CC(N=S(C)(C)=O)CN(c2cc(-c3cnc4ccc(C(N)=O)nn34)ncn2)C1 (stereo not shown) [II-726, 3-(6-(3-((Dimethyl(oxo)-λ^6-sulfanylidene)amino)-5-methylpiperidin-1-yl)pyrimidin-4-yl)imidazo[1,2-b]pyridazine-6-carboxamide]	–	–	> 5000	10 to 1000
OCc1cc(C2CCCN(c3ccnc(-c4cnc5cnc(C(F)F)cn45)n3)C2)n[nH]1 (stereo not shown) [IV-93, (3-(1-(2-(6-(Difluoromethyl)imidazo[1,2-a]pyrazin-3-yl)pyrimidin-4-yl)piperidin-3-yl)-1H-pyrazol-5-yl)methanol]	> 5000	100 to 1000	–	–
CC1(O)CC(CNS(C)(=O)=O)CN(c2cc(-c3cnc4ccc(C(F)F)nn34)ncn2)C1 (single isomer, unassigned) [II-5, N-((1-(6-(6-(Difluoromethyl)imidazo[1,2-b]pyridazin-3-yl)pyrimidin-4-yl)-5-hydroxy-5-methylpiperidin-3-yl)methyl)methanesulfonamide]	–	–	> 5000	10 to 1000
NS(=O)(=O)C1CCCN(c2cc(-c3cnc4ccc(C(F)F)nn34)ncn2)C1 (stereo not shown) [II-376, 1-(6-(6-(Difluoromethyl)imidazo[1,2-b]pyridazin-3-yl)pyrimidin-4-yl)piperidine-3-sulfonamide]	–	–	500 to 5000	10 to 1000
CS(=O)(=O)N[C@H]1CCCN(c2cc(-c3cnc4ccc(C(F)F)nn34)ncn2)C1 (single isomer, unassigned) [II-404]	–	–	500 to 5000	10 to 1000
O=C1CN(CC2CCN(c3cc(-c4cnc5ccc(C(F)F)nn45)ncn3)C2)CCN1 (stereo not shown) [II-353, 4-((1-(6-(6-(Difluoromethyl)imidazo[1,2-b]pyridazin-3-yl)pyrimidin-4-yl)pyrrolidin-3-yl)methyl)piperazin-2-one]	–	–	> 5000	10 to 1000
O=c1[nH]nc2n1CCN(c1ccnc(-c3cnc4cnc(C(F)F)cn34)n1)C2 [IV-83, 7-(2-(6-(Difluoromethyl)imidazo[1,2-a]pyrazin-3-yl)pyrimidin-4-yl)-5,6,7,8-tetrahydro-[1,2,4]triazolo[4,3-a]pyrazin-3 (2H)-one]	> 5000	100 to 1000	–	–
CC1(NS(C)(=O)=O)CCCN(c2cc(-c3cnc4ccc(C(F)F)nn34)ncn2)C1 (stereo not shown) [II-446, N-(1-(6-(6-(Difluoromethyl)imidazo[1,2-b]pyridazin-3-yl)pyrimidin-4-yl)-3-methylpiperidin-3-yl)methanesulfonamide]	–	–	> 5000	10 to 1000
O=C1NCC2CN(c3ccnc(-c4cnc5cnc(C(F)(F)F)cn45)n3)CCN12 (stereo not shown) [IV-480, 7-(2-(6-(Trifluoromethyl)imidazo[1,2-a]pyrazin-3-yl)pyrimidin-4-yl)hexahydroimidazo[1,5-a]pyrazin-3(2H)-one]	> 5000	100 to 1000	–	–
CC1CN(c2cc(-c3cnc4ccc(C(F)F)nn34)ncn2)CC(CNS(C)(=O)=O)N1 (stereo not shown) [II-411]	–	–	500 to 5000	10 to 1000
CC1CN(c2cc(-c3cnc4ccc(C(F)F)nn34)ncn2)CC(CNS(C)(=O)=O)N1C (stereo not shown) [II-418, N-((4-(6-(6-(Difluoromethyl)imidazo[1,2-b]pyridazin-3-yl)pyrimidin-4-yl)-1,6-dimethylpiperazin-2-yl)methyl)methanesulfonamide]	–	–	500 to 5000	10 to 1000
CC1C(CNS(C)(=O)=O)OCCN1c1cc(-c2cnc3ccc(C(F)F)nn23)ncn1 (stereo not shown) [II-345, N-((4-(6-(6-(Difluoromethyl)imidazo[1,2-b]pyridazin-3-yl)pyrimidin-4-yl)-3-methylmorpholin-2-yl)methyl)methanesulfonamide]	–	–	< 500	< 10
CS(=O)(=O)NCC1(O)CCN(c2cc(-c3cnc4ccc(C(F)F)nn34)ncn2)C1 (stereo not shown) [II-137, N-((1-(6-(6-(Difluoromethyl)imidazo[1,2-b]pyridazin-3-yl)pyrimidin-4-yl)-3-hydroxypyrrolidin-3-yl)methyl)methanesulfonamide]	–	–	> 5000	10 to 1000
CC1CN(c2cc(-c3cnc4ccc(C(F)F)nn34)ncn2)CC(CNS(C)(=O)=O)O1 (stereo not shown) [II-31, N-((4-(6-(6-(Difluoromethyl)imidazo[1,2-b]pyridazin-3-yl)pyrimidin-4-yl)-6-methylmorpholin-2-yl)methyl)methanesulfonamide]	–	–	< 500	< 10
CC1CN(c2cc(-c3cnc4ccc(C(F)F)nn34)ncn2)CC(CNS(C)(=O)=O)C1=O (stereo not shown) [II-526, N-((1-(6-(6-(Difluoromethyl)imidazo[1,2-b]pyridazin-3-yl)pyrimidin-4-yl)-5-methyl-4-oxopiperidin-3-yl)methyl)methanesulfonamide]	–	–	< 500	< 10
CC1(C)CN(c2cc(-c3cnc4ccc(C(F)F)nn34)ncn2)C[C@H](CNS(C)(=O)=O)O1 [II-257, (R)—N-((4-(6-(6-(Difluoromethyl)imidazo[1,2-b]pyridazin-3-yl)pyrimidin-4-yl)-6,6-dimethylmorpholin-2-yl)methyl)methanesulfonamide]	–	–	500 to 5000	10 to 1000
CN(C)S(=O)(=O)NCC1CN(c2cc(-c3cnc4ccc(C(F)F)nn34)ncn2)CCO1 (stereo not shown) [II-349, 3-((4-(6-(6-(Difluoromethyl)imidazo[1,2-b]pyridazin-3-yl)pyrimidin-4-yl)morpholin-2-yl)methyl)-1,1-dimethyl sulfuric diamide]	–	–	500 to 5000	10 to 1000
CC1CN(c2ccnc(-c3cnc4cnc(C(F)(F)F)cn34)n2)CC(c2cn[nH]c2)O1 (single isomer, unassigned) [IV-14, 2-Methyl-6-(1H-pyrazol-4-yl)-4-(2-(6-(trifluoromethyl)imidazo[1,2-a]pyrazin-3-yl)pyrimidin-4-yl)morpholine]	< 500	< 10	–	–
